In one assay the target is IDH2 R140Q (Homo sapiens (Human), UniProt P48735, R140Q). In words: In vitro assay for IDH2m R140Q inhibitors, cofactor depletion assay, 16 hr preincubation with NADPH/NADP. The class given is biochemical. The settings on record: read-out: IDH2 R140Q 16 hr NADPH/NADP IC50; 16 hrs preincubation with enzyme, 5 uM NADPH and 750 uM NADP. The source says:
The following describes the experimental procedures used to obtain data on column 6 of Table 5.
The reaction is terminated by the addition of a second enzyme, diaphorase, and a corresponding substrate, resazurin. Diaphorase reduces resazurin to the highly fluorescent resorufin with the concomitant oxidation of NADPH to NADP, both halting the IDH2 reaction by depleting the available cofactor pool and facilitating quantitation of the amount of cofactor remaining after a specific time period through quantitative production of an easily detected fluorophore.
The test compound is then incubated for 16 hrs at room temperature with the enzyme and cofactors before starting the IDH2 reaction with the addition of 10 μl of substrate mix containing 8 mM α-KG (final concentration 1.6 mM) in the buffer described above. After a further 1 hour of incubation at room temperature, the reaction is halted and the remaining NADPH measured through conversion of resazurin to resorufin by the addition of 25 μl Stop Mix (36 μg/ml diaphorase enzyme and 60 μM resazurin; in buffer).

The next assay relates to HT1080 cells. In words: Cellular assay for IDH1m R132C inhibitors, 2-HG by LC-MS in HT1080 cells. The class given is cell-based. Conditions: Homo sapiens, HT-1080. The method in brief:
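2-HG levels were measured by LC-MS in culture medium sampled 48 h after compound addition (0.2% DMSO) to HT1080 cells seeded overnight at 5000 cells/well. A CellTiter-Glo luminescence read at 72 h gave cell viability.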

In assay [1] the target is IDH1 wt/IDH1 R132H heterodimer (Homo sapiens (Human), UniProt O75874, R132H). Kind of assay: In vitro assay for IDH1m R132H inhibitors, IDH1 wt/IDH1 R132H heterodimer, NADPH depletion (diaphorase/resazurin). The settings on record: IDH1 wt/R132H heterodimer, NADPH/NADP, not saturated; read-out: IDH1 wt/R132H NADPH/NADP IC50 not saturated. The format is biochemical. A digest of the protocol: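 Read-out is NADPH left after α-KG reduction to 2-HG, measured via resorufin fluorescence after 5 min diaphorase/resazurin step at 25° C. Enzyme is sf9-expressed IDH1wt-his/IDH1R132H-flag heterodimer, pre-incubated 1 hr at room temperature with compound and cofactor. IC50s from DMSO stocks diluted 1:50.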
In general terms: The colour change of resazurin is a common sign of viable cells or microbes.

Chain of IDH1 wt/IDH1 R132H heterodimer (O75874 whole entry R132H): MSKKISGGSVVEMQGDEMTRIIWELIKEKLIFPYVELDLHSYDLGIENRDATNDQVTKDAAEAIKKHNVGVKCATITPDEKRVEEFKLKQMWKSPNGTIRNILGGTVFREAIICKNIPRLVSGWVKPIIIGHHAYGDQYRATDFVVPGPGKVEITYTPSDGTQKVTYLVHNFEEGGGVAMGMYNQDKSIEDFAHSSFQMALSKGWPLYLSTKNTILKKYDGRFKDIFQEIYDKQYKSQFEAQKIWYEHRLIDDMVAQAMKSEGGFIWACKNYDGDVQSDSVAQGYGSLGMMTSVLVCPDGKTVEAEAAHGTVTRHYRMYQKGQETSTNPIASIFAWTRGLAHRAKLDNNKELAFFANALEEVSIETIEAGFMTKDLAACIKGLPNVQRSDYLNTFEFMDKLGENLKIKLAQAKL
Chain of IDH1 wt/IDH1 R132H heterodimer (O75874 whole entry, stated change not applied): as the sequence (O75874 whole entry R132H) above, with H132R counted along it
Chain of IDH2 R140Q (P48735 40-452 R140Q): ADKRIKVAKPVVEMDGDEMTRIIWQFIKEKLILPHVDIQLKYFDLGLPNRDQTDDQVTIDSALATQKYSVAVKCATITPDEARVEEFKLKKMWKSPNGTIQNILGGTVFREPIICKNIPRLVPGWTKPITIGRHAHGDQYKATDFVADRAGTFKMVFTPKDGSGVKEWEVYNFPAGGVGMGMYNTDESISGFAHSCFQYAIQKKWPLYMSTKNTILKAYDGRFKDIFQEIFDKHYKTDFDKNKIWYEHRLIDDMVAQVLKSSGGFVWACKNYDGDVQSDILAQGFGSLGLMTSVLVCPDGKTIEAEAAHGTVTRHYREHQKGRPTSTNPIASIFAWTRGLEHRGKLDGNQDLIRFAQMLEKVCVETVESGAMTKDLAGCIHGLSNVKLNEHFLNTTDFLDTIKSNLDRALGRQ

Regarding `CCC(Nc1nc(NC(CC)C2CC2)nc(-c2cccc(Cl)n2)n1)C1CC1` (stereo not shown) [Compound 110], the IC50 was less than 50 nM at IDH2 R140Q, 50 to 100 nM in the assay with HT1080 cells and less than 50 nM in assay [1].

`C[C@@H](Nc1nc(N[C@H](C)C2CC2)nc(-n2ccc(C(F)(F)F)n2)n1)C1CC1` [Compound 121]: the IC50 (in the assay on HT1080 cells; in assay [1]) was less than 50 nM throughout.

As for `FC1(F)CCC(Nc2nc(NC3CCC(F)(F)CC3)nc(-c3cncc(Cl)n3)n2)CC1` [Compound 147], the figures for the IC50 (in the assay with HT1080 cells; in assay [1]) were 100 to 1000 nM and less than 50 nM, respectively.

Turning to `FC1(F)CC(Nc2nc(NC3CC(F)(F)C3)nc(-n3ccc(C(F)(F)F)n3)n2)C1` [Compound 126], the IC50 in assay [1] is less than 50 nM.

In the case of `FC1(F)CCC(Nc2nc(NC3CCN(c4ccccn4)C3)nc(-c3cccc(C(F)(F)F)n3)n2)C1` (stereo not shown) [Compound 222], in assay [1], the IC50 was less than 50 nM.

Consider `Fc1cc(F)cc(Nc2nc(NC3CCC(F)(F)C3)nc(-c3cccc(C(F)(F)F)n3)n2)c1` (stereo not shown) [Compound 123], for which the results for the IC50 (in the assay with HT1080 cells; in assay [1]) were 100 to 1000 nM and less than 50 nM, respectively.

`CC(C)(CC#N)Nc1nc(Nc2ccnc(C(C)(F)F)c2)nc(-c2cccc(C(F)(F)F)n2)n1` [Compound 231]: the IC50 with HT1080 cells is greater than 1000 nM; in assay [1], less than 50 nM.

As for `N#Cc1cc(F)cc(Nc2nc(NC3CCC(F)(F)C3)nc(-c3cccc(C(F)(F)F)n3)n2)c1` (stereo not shown) [Compound 124], the IC50 in assay [1] is less than 50 nM.

As for `C[C@@H](Nc1nc(Nc2ccnc(C3(C#N)CC3)c2)nc(-c2cccc(Cl)n2)n1)C1CC1` [Compound 167], the IC50 (on IDH2 R140Q; in assay [1]) was less than 50 nM in each case.

For the compound `C[C@@H](Nc1nc(N[C@H](C)C2CC2)nc(-c2nccc(C(F)(F)F)n2)n1)C1CC1` [Compound 268], the results for the IC50 (on IDH2 R140Q; with HT1080 cells; in assay [1]) were 50 to 100 nM, 100 to 1000 nM and 100 to 1000 nM, respectively.

Regarding `CC(Nc1nc(Nc2ccnc(C3(C#N)CC3)c2)nc(-c2cccc(Cl)n2)n1)C(F)(F)F` (stereo not shown) [Compound 134], the IC50 (with HT1080 cells; in assay [1]) was less than 50 nM throughout.

Regarding `FC1(F)CCC(Nc2nc(NC3CCC(F)(F)C3)nc(-c3cccc(OC(F)(F)F)n3)n2)C1` (stereo not shown) [Compound 252], the IC50 in assay [1] is 50 to 100 nM.

On to `N#CC1(c2cc(Nc3nc(NC4CCC(F)(F)C4)nc(-c4cccc(Cl)n4)n3)ccn2)CC1` (stereo not shown) [Compound 127], for which the IC50 is less than 50 nM at IDH2 R140Q, 50 to 100 nM with HT1080 cells and less than 50 nM in assay [1].

In the case of `N#CC1(c2cc(Nc3nc(NCC(F)(F)F)nc(-c4cccc(C(F)(F)F)n4)n3)ccn2)CC1` [Compound 226], the IC50 in assay [1] is less than 50 nM.

As to `N#Cc1cc(Nc2nc(NC3CC(F)(F)C3)nc(-c3cccc(C(F)(F)F)n3)n2)ccn1` [Compound 213], in assay [1], the IC50 was less than 50 nM.

For the compound `N#Cc1cc(F)cc(Nc2nc(NC3CCC(F)(F)CC3)nc(-c3cccc(C(F)(F)F)n3)n2)c1` [Compound 164], in assay [1], the IC50 is less than 50 nM.

Consider `CC(CC#N)Nc1nc(N[C@H](C)C2CC2)nc(-c2cccc(C(F)(F)F)n2)n1` (stereo partly shown) [Compound 214], for which, in assay [1], the IC50 was less than 50 nM.

`N#Cc1cc(Nc2nc(NC3CCC(F)(F)C3)nc(-c3cccc(C(F)(F)F)n3)n2)ccn1` (stereo not shown) [Compound 181]: the IC50 is 100 to 1000 nM with HT1080 cells and less than 50 nM in assay [1].

Take `FC1(F)CCC(Nc2nc(NC3CCC(F)(F)CC3)nc(-c3nccc(C(F)(F)F)n3)n2)CC1` [Compound 293]: in assay [1], the IC50 was in the range of 100 to 1000 nM.

With `CC(C)(C)Nc1nc(Nc2ccnc(C#N)c2)nc(-c2cccc(C(F)(F)F)n2)n1` [Compound 162], the IC50 in assay [1] was less than 50 nM.

Consider `FC1(F)CC(Nc2nc(NC3CC(F)(F)C3)nc(-c3cccc(C(F)(F)F)n3)n2)C1` [Compound 149], for which the IC50 in the assay with HT1080 cells is 50 to 100 nM; in assay [1], less than 50 nM.

`CC(C)(C)Nc1nc(Nc2cc(F)cc(C#N)c2)nc(-c2nccc(C(F)(F)F)n2)n1` [Compound 245]: the IC50 was less than 50 nM on IDH2 R140Q and 50 to 100 nM in assay [1].

As for `C[C@@H](Nc1nc(NC(C2CC2)C2CC2)nc(-c2cccc(C(F)(F)F)n2)n1)C1CC1` [Compound 193], the IC50 (at IDH2 R140Q; in assay [1]) was less than 50 nM in each case.

Turning to `FC1(F)CCC(Nc2nc(NC3Cc4ccc(Cl)cc4C3)nc(-c3cccc(C(F)(F)F)n3)n2)C1` (stereo not shown) [Compound 182], the IC50 in assay [1] is less than 50 nM.

`FC1(F)CCC(Nc2nc(NC3CCN(c4ncccn4)C3)nc(-c3cccc(C(F)(F)F)n3)n2)C1` (stereo not shown) [Compound 227]: the IC50 in assay [1] is less than 50 nM.

In the case of `CC(C)(C#N)Nc1nc(Nc2ccnc(C(C)(F)F)c2)nc(-c2cccc(C(F)(F)F)n2)n1` [Compound 247], the IC50 in assay [1] fell in the range of 50 to 100 nM.

Take `FC1(F)CCC(Nc2nc(NC3CCC(F)(F)CC3)nc(-n3ccc(C(F)(F)F)n3)n2)CC1` [Compound 176]: the IC50 with HT1080 cells is 100 to 1000 nM; in assay [1] it was less than 50 nM.

In the case of `FC(F)c1cccc(-c2nc(NC3CC(F)(F)C3)nc(NC3CC(F)(F)C3)n2)n1` [Compound 145], the values for the IC50 (in the assay with HT1080 cells; in assay [1]) were 100 to 1000 nM and less than 50 nM, respectively.

For `FC1(F)CCC(Nc2nc(NC3CC4(C3)CC(F)(F)C4)nc(-c3cccc(C(F)(F)F)n3)n2)C1` (stereo not shown) [Compound 191], the IC50 in the assay on HT1080 cells was 100 to 1000 nM; in assay [1], less than 50 nM.

`CC(C#N)Nc1nc(Nc2ccnc(C(C)(F)F)c2)nc(-c2cccc(C(F)(F)F)n2)n1` (stereo not shown) [Compound 253]: the IC50 in assay [1] lay within 50 to 100 nM.

Consider `FC1(F)CCC(Nc2nc(Nc3ccnc(C(F)(F)F)c3)nc(-c3cccc(C(F)(F)F)n3)n2)C1` (stereo not shown) [Compound 178], for which the IC50 (on IDH2 R140Q; in assay [1]) was less than 50 nM throughout.

Regarding `Fc1ccc([C@H]2C[C@@H](Nc3nc(N[C@H]4C[C@@H](c5ccc(F)cc5)C4)nc(-c4cccc(C(F)(F)F)n4)n3)C2)cc1` [Compound 272], the IC50 (in the assay on HT1080 cells; in assay [1]) was 100 to 1000 nM in each case.

On to `FC1(F)CC(Nc2nc(NC3CC(F)(F)C3)nc(-c3csc(C(F)(F)F)n3)n2)C1` [Compound 170], for which the IC50 in assay [1] was less than 50 nM.

As for `CC(CC#N)Nc1nc(Nc2ccnc(C(C)(F)F)c2)nc(-c2cccc(C(F)(F)F)n2)n1` (stereo not shown) [Compound 250], the IC50 (at IDH2 R140Q; in assay [1]) was 50 to 100 nM in each case.

In the case of `CC(F)(F)c1cccc(-c2nc(NC3CCC(F)(F)C3)nc(NC3CCC(F)(F)C3)n2)n1` (stereo not shown) [Compound 105], the IC50 (in the assay on HT1080 cells; in assay [1]) was less than 50 nM throughout.

On to `Fc1ccc([C@H]2C[C@@H](Nc3nc(NC4CCC(F)(F)C4)nc(-c4cccc(C(F)(F)F)n4)n3)C2)cc1` (stereo partly shown) [Compound 199], for which the IC50 in assay [1] is less than 50 nM.

Turning to `CC(F)(F)c1cccc(-c2nc(NC3CC(F)(F)C3)nc(NC3CC(F)(F)C3)n2)n1` [Compound 187], the IC50 in assay [1] is less than 50 nM.

Turning to `FC1(F)CCC(Nc2nc(Nc3ccnc(C(F)(F)F)c3)nc(-c3cccc(Cl)n3)n2)C1` (stereo not shown) [Compound 115], the IC50 was 100 to 1000 nM in the assay on HT1080 cells and less than 50 nM in assay [1].

Take `FC1(F)CCC(Nc2nc(NC3CCC(F)(F)C3)nc(-n3ccc(C(F)(F)F)n3)n2)C1` (stereo not shown) [Compound 146]: the IC50 in assay [1] is less than 50 nM.

As for `N#CC1(c2cc(Nc3nc(NC4CCC(F)(F)C4)nc(-c4nccc(C(F)(F)F)n4)n3)ccn2)CC1` (stereo not shown) [Compound 261], the IC50 in assay [1] was 100 to 1000 nM.

For `N#CC1(c2cc(Nc3nc(NC4CCC(F)(F)C4)nc(-c4cccc(C(F)(F)F)n4)n3)ccn2)CC1` (stereo not shown) [Compound 151], in assay [1], the IC50 is less than 50 nM.

As for `Clc1cccc(-c2nc(NC(C3CC3)C3CC3)nc(NC(C3CC3)C3CC3)n2)n1` [Compound 131], in assay [1], the IC50 is less than 50 nM.

Regarding `FC1(F)CCC(Nc2nc(NC3CCC(F)(F)C3)nc(-c3nccc(C(F)(F)F)n3)n2)C1` (stereo not shown) [Compound 237], the IC50 was 100 to 1000 nM in the assay with HT1080 cells and less than 50 nM in assay [1].

On to `FC1(F)CC(Nc2nc(NC3CC(F)(F)C3)nc(-c3nccc(C(F)(F)F)n3)n2)C1` [Compound 256], for which the IC50 in assay [1] lay within 100 to 1000 nM.

In the case of `N#CC1(c2cc(Nc3nc(NC4CC5(C4)CC(F)(F)C5)nc(-c4cccc(C(F)(F)F)n4)n3)ccn2)CC1` [Compound 229], the IC50 was 100 to 1000 nM in the assay with HT1080 cells and less than 50 nM in assay [1].

Turning to `FC1(F)CCC(Nc2nc(Nc3ccnc(C(F)(F)F)c3)nc(-c3cccc(C(F)(F)F)n3)n2)CC1` [Compound 192], the IC50 in the assay on HT1080 cells is 100 to 1000 nM; in assay [1], less than 50 nM.

With `FC1(F)CCC(Nc2nc(NC3Cc4ccccc4C3)nc(-c3cccc(C(F)(F)F)n3)n2)C1` (stereo not shown) [Compound 152], the IC50 in assay [1] was less than 50 nM.

Turning to `FC1(F)CC(Nc2nc(NC3CC(F)(F)C3)nc(-c3nc(C(F)(F)F)cs3)n2)C1` [Compound 128], the IC50 (with HT1080 cells; in assay [1]) was less than 50 nM in each case.

For the compound `FC1(F)CCC(Nc2nc(NC3CCC(F)(F)CC3)nc(-c3csc(C(F)(F)F)n3)n2)CC1` [Compound 223], the IC50 in assay [1] was less than 50 nM.

Turning to `FC(F)c1cccc(-c2nc(NC3CCC(F)(F)CC3)nc(NC3CCC(F)(F)CC3)n2)n1` [Compound 224], the results for the IC50 (with HT1080 cells; in assay [1]) were 100 to 1000 nM and less than 50 nM, respectively.
